In data set [1] the target is T1, VLA-4/sVCAM-1 (Homo sapiens, UniProt P05556+P13612).
T1 construct: host or cells: Jurkat cells carry the VLA-4; The sVCAM-1 partner was made in house in transfected human embryonal kidney 293 cells (ATCC CRL 1573)
Kind of data set: In vitro binding assay: Jurkat cells to solid phase-bound sVCAM-1. Format: cell-based. As to conditions: for relative potencies for inhibiting Jurkat cell binding to solid phase-bound sVCAM-1: compared against each other, XLDFp = 1. As for the experimental part: Assays conducted using sVCAM-1 as solid phase-bound antigen were carried out substantially identically to those using CS-1. The sVCAM-1 polypeptide used had the same amino acid residue sequence as the materials described in Lobb et al., Biochem. Biophys. Res. Commun., 178:1498-1504 (1991) and Cybulsky et al., Proc. Natl. Acad. Sci., USA, 88:7859-7863 (1991). Human embryonal kidney line 293 (ATCC CRL 1573) cells were co-transfected with a plasmid (pCDNAI;invitrogen) containing the sVCAM-1 DNA sequence and plasmid pSV2-neo [Southern et al., J. Mol. Appl. Gen., 1:327-341 ([…])]. Cells were selected in DMEM, 10 percent fetal bovine serum and 600 μg/ml Geneticin. sVCAM-1 was purified from supernatants using a column containing monoclonal antibody P3H12 (anti-human VCAM-1) coupled to Sepharose 4B. The sVCAM-1 was eluted using 0.1M glycine at pH 2.5 following 50 column washes with PBS, pH 7.2. The eluate was immediately neutralized and dialyzed against PBS for use.

The target in data set [2] is T2, VLA-4 (Homo sapiens, UniProt P05556+P13612). As to the kind of experiment: In vitro binding assay: 51Cr-labeled Jurkat cells to solid phase-bound CS-1 peptide (SEQ ID NO:5). Format: cell-based. Also on record: inflammatory cells that contain the VLA-4 receptor [Jurkat cells; host or cells: Jurkat cells (human T lymphoblastic line). Conditions: for Relative Potency: Jurkat cells, CS-1; for CS-1 inhibition potencies relative to each other: ratio XLDFZ:XLDFp:SEQ ID NO:7, XLDFp = 1; for Potency in inhibiting Jurkat cell binding to CS-1 relative to standard 10-mer of SEQ ID NO:6: times/fold more potent than SEQ ID NO:6. As for the experimental part: Binding inhibition is measured here as a concentration of peptide that inhibits one-half the binding between a standard number of Jurkat cells and a standard amount of CS-1 peptide bound to the surface of a microtiter plate well. Those concentrations are conveniently expressed as IC50 values, smaller numbers indicating a lower concentration required to inhibit 50 percent binding and therefore greater potency. Further specifics of this assay are provided hereinafter.
Jurkat cells (ATCC TIB 152), a human T lymphoblastic line, labeled with ^51 chromium were used to assay in vitro binding inhibition provided by various peptides discussed herein.
The plates were prepared as follows: The 25-mer CS-1 peptide (SEQ ID NO:5) dissolved at 0.5-1 μg/ml in a buffer of 0.1M NaHCO3 at pH 9.5 that also contained 10 μg/ml of bovine serum albumin (BSA) or a conjugate of the CS-1 peptide linked to ovalbumin (CS-1-OVA) dissolved at 1-2.5 μg/ml in the same buffer was used as the substrate. Each well of the microtiter plates was coated with 50 μl of substrate or buffer alone for controls. The wells were permitted to dry out completely and were then rinsed twice with PBS at pH 7.4. Non-specific binding sites of each well were then blocked using 200 μl per well of RPMI/1 percent BSA for two hours at room temperature. Both solid phase-affixed substrates provided similar results.
Jurkat cells (3-5×10^6 cells) were placed into a 15 ml FALCON™ round-bottom tube with a cap. The tube was centrifuged, and the extra medium was then removed.
Two hundred microliters of a ^51 Cr labeling solution were added to the centrifuged cells and maintained in contact with the cells for 90-120 minutes in a warm room. This procedure typically provides about 50,000-100,000 cpm/well with about 80-100 percent cell viability. Longer contact times provide a greater amount of labeling but lower cell viability.
The labeled cells were washed with (i) complete medium, (ii) 1mM EDTA/PBS and then (iii) RPM1/1 percent BSA free of serum components. The cells were centrifuged after each washing. The cells were finally resuspended in serum-free RPMI/1 percent BSA at a concentration of 1×10^6 viable cells/ml, which provides a concentration that is diluted by one-half in the assay.
Cyclic inhibitor peptides were prepared as stock solutions at 20 mg/ml in DMSO in 1.5 ml cryogenic screwcap vials, and were stored at -70° C. Using FLOW™ round-bottom or V-bottom microtiter plates, the inhibitor peptides were prepared at twice the assay concentration in RPMI/1 percent BSA at 60 μl/well.
Four initial dilutions were typically used.
The ^51 Cr-labeled cells (1×10^6 cells at 60 μl/well) were then admixed with the diluted cyclic peptide solutions. The admixtures were maintained at room temperature (about 22° C.) for 30 minutes.
One hundred microliters of each inhibitor peptide/cell admixture were transferred to the substrate-coated wells. This was done in triplicate for each dilution. The resulting plates were incubated for 30 minutes at 37° C. and then washed gently three times with RPMI/1 percent BSA at 200 μl/well. Binding was observed microscopically, particularly after the second wash.
The bound cells were then lysed by the addition of a 0.5 percent solution of sodium dodecylsulfate in water at 100 μl/well. The resulting solutions were then processed for counting and calculation of IC50 values following usual procedures. Appropriate positive and negative controls were used with each plate so that the results of separate assays could be normalized and compared.
The potency data of Table 1 and Table 2 are so normalized. The absolute IC50 value for the peptide of SEQ ID NO:7 is 0.3 μM.

Data set [3] in a line: Retention of potency in PBS containing 10 percent mouse or human serum. Type of data set: in vitro ADME. As to conditions: PBS at 7.2-7.4 containing 10 percent mouse or human serum.
The target of data set [4] is T2, VLA-4. As to conditions: cited from earlier work.
Where [5] appears, read: Table 1, normalized IC50 potency relative to standard peptide SEQ ID NO:6 (=1).
Setting [6] is: Table 2, normalized IC50 potency relative to standard peptide SEQ ID NO:6.

Several values for one entry are separate records, joined by “and”; a condition that tells them apart may be missing. Equal values may be shown once. Positions of bridges follow the written chain, without caps; N, C: chain ends. Non-standard residues stand in square brackets, D forms with d. Residues, ends and D or L forms follow the SMILES beside them. No end group written: not given here. *: point of attachment. PhAc = O=C(Cc1ccccc1)* A value given as a limit tells only on which side of the number the result lay.

T1 sequence (P13612 34-1032): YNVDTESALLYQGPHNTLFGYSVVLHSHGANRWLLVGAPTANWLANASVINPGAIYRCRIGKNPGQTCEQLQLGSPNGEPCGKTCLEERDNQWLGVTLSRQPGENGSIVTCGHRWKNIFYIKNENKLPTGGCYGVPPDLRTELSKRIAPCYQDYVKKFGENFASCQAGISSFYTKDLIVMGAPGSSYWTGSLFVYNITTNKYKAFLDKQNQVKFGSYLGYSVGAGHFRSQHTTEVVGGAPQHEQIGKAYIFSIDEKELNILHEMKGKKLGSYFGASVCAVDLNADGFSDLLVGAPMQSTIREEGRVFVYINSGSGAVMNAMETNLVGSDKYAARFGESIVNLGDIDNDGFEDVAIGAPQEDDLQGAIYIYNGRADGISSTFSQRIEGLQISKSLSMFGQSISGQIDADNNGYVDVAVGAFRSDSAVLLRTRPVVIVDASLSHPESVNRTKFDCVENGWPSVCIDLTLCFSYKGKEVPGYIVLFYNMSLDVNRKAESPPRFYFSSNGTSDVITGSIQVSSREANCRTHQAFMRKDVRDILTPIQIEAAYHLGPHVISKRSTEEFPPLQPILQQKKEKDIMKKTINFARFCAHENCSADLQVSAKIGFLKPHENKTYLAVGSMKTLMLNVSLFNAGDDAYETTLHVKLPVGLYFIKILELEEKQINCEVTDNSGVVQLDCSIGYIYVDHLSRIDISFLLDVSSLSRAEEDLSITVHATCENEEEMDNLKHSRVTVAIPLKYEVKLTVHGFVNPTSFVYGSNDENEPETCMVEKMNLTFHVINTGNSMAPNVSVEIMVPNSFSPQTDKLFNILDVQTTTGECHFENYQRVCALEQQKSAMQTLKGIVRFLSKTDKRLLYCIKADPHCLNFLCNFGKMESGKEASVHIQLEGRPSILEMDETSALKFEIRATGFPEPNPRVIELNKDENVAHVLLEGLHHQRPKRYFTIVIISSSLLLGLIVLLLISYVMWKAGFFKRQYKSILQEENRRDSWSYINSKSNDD
T1 sequence (P05556 21-798): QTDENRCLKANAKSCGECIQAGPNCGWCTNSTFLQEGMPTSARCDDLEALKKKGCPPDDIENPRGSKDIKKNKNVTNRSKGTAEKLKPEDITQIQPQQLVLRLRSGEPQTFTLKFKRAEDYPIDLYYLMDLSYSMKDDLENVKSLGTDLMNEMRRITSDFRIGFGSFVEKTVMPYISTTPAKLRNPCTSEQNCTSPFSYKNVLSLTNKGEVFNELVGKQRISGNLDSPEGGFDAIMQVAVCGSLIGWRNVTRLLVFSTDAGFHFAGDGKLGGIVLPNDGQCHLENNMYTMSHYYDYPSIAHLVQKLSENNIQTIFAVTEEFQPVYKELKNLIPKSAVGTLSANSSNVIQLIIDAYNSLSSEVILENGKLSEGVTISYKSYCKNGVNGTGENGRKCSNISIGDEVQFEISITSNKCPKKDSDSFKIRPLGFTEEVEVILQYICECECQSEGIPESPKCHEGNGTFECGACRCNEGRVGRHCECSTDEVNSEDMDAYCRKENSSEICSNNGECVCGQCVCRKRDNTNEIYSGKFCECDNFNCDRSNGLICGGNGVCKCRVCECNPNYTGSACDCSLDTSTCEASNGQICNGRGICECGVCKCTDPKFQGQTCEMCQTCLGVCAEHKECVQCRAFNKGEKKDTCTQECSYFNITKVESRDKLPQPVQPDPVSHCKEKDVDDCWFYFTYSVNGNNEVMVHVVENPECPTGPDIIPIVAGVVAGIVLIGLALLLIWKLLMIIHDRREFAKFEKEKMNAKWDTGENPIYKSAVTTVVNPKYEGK
T2 sequence (P13612 34-1032): as the sequence (P13612 34-1032) above
T2 sequence (P05556 21-798): as the sequence (P05556 21-798) above

In the case of `NC(=O)[C@@H]1CSSC[C@H](NC(=O)Cc2ccccc2)C(=O)N[C@@H](CC(=O)O)C(=O)N[C@@H](Cc2ccccc2)C(=O)N1` [SEQ ID NO:7, .phi.AcCDFC-NH2] (PhAc-CDFC-NH2; disulfide 1-4), in data set [1], the “potency relative to the best linear peptide (XLDFZ) as inhibitor of Jurkat cell binding to sVCAM-1” value was “about 3 times” and the “relative potencies for inhibiting Jurkat cell binding to solid phase-bound sVCAM-1” value is about 3.8. Also, in data set [2], the “potency relative to the best linear peptide (XLDFZ) for inhibiting Jurkat cell binding to CS-1” value is given as “about two-thirds the potency”; the “CS-1 inhibition potencies relative to each other” value was about 1.8; the “Potency in inhibiting Jurkat cell binding to CS-1 relative to standard 10-mer of SEQ ID NO:6” value is 500-600 and ~563. Besides, in data set [2] (setting [5]), the “Relative Potency” value stood at 526. The “loss of potency in serum-containing buffer” value in data set [3] is “no loss of potency after 24 hours”.

With `CC(C)C[C@@H]1NC(=O)[C@@H](N)CSSC[C@@H](C(N)=O)NC(=O)[C@H](Cc2ccccc2)NC(=O)[C@H](CC(=O)O)NC1=O` [SEQ ID NO:28, CLDFC -NH2] (H-CLDFC-NH2; disulfide 1-5), in data set [2] (setting [5]), the “Relative Potency” value is on record as 1. As to `CC(=O)N[C@@H](Cc1ccccc1)C(=O)N[C@H]1CSSC[C@@H](C(=O)N2CCC[C@H]2C(N)=O)NC(=O)[C@H](CC(=O)O)NC1=O` [SEQ ID NO:29, AcFCDCP-NH2] (Ac-FCDCP-NH2; disulfide 2-4), the “Relative Potency” value in data set [2] (setting [5]) was 1.

Consider `NC(=O)[C@@H]1CCCN1C(=O)[C@@H]1CSSC[C@H](NC(=O)[C@@H](N)Cc2ccccc2)C(=O)N[C@@H](CC(=O)O)C(=O)N1` [SEQ ID NO:30, FCDCP-NH2] (H-FCDCP-NH2; disulfide 2-4), for which, in data set [2] (setting [5]), the “Relative Potency” value is reported as under 1.

As for `CC(C)C[C@@H]1NC(=O)[C@H](CCC(=O)O)NC(=O)[C@@H]2CCCN2C(=O)[C@@H](N)CSSC[C@@H](C(N)=O)NC(=O)[C@H](CO)NC(=O)[C@@H]2CCCN2C(=O)[C@H](Cc2ccccc2)NC(=O)[C@H](CC(=O)O)NC1=O` [SEQ ID NO:33, CPELDFPSC-NH2] (H-CPELDFPSC-NH2; disulfide 1-9), the “Relative Potency” value in data set [2] (setting [5]) stood at 31. Turning to `CC(C)C[C@H](NC(=O)Cc1ccccc1)C(=O)N[C@@H](CC(=O)O)C(=O)N[C@@H](Cc1ccccc1)C(=O)N1CCC[C@@H]1C(N)=O` [XLDFp, .phi.Ac-LeuAspPhe-D-Pro-NH2, reference compound] (PhAc-LDF[dP]-NH2), the “relative potencies for inhibiting Jurkat cell binding to solid phase-bound sVCAM-1” value in data set [1] is about 1. Moreover, in data set [2], the “CS-1 inhibition potencies relative to each other” value was about 1 and the “Potency in inhibiting Jurkat cell binding to CS-1 relative to standard 10-mer of SEQ ID NO:6” value is about 313. In the case of `CC(C)C[C@@H]1NC(=O)[C@H](Cc2ccccc2)NC(=O)[C@@H](N)CSSC[C@@H](C(N)=O)NC(=O)[C@@H]2CCCN2C(=O)[C@H](Cc2ccccc2)NC(=O)[C@H](CC(=O)O)NC1=O` [drawing 7] (H-CFLDFPC-NH2; disulfide 1-7), in data set [2] (setting [6]), the “Relative Potency” value stood at 254. With `CC(=O)N[C@H]1CSSC[C@@H](C(N)=O)NC(=O)[C@@H]2CCCN2C(=O)[C@H](Cc2ccccc2)NC(=O)[C@H](CC(=O)O)NC(=O)[C@H](CC(C)C)NC(=O)[C@H](Cc2ccccc2)NC1=O` [drawing 10] (Ac-CFLDFPC-NH2; disulfide 1-7), the “Relative Potency” value in data set [2] (setting [6]) is on record as 135. Regarding `NC(=O)[C@@H]1CSSC[C@H](NC(=O)[C@@H](N)Cc2ccccc2)C(=O)N[C@@H](CC(=O)O)C(=O)N[C@@H](Cc2ccccc2)C(=O)N2CCC[C@H]2C(=O)N1` [drawing 11] (H-FCDFPC-NH2; disulfide 2-6), the “Relative Potency” value in data set [2] (setting [6]) worked out at 131. Regarding `CC(C)C[C@@H]1NC(=O)[C@H](Cc2ccccc2)NC(=O)[C@@H](N)CSSC[C@@H](C(N)=O)NC(=O)[C@H](CO)NC(=O)[C@@H]2CCCN2C(=O)[C@H](Cc2ccccc2)NC(=O)[C@H](CC(=O)O)NC1=O` [drawing 12] (H-CFLDFPSC-NH2; disulfide 1-8), the “Relative Potency” value in data set [2] (setting [6]) was 122.

As to `CC(=O)N[C@@H](Cc1ccccc1)C(=O)N[C@H]1CSSC[C@@H](C(N)=O)NC(=O)[C@H](Cc2ccccc2)NC(=O)[C@H](CC(=O)O)NC1=O` [drawing 21] (Ac-FCDFC-NH2; disulfide 2-5), in data set [2] (setting [6]), the “Relative Potency” value is recorded as 52.6. `CC(C)C[C@@H]1NC(=O)[C@H](Cc2ccccc2)NC(=O)[C@H](CCC(=O)O)NC(=O)[C@@H]2CCCN2C(=O)[C@@H](N)CSSC[C@@H](C(N)=O)NC(=O)[C@@H]2CCCN2C(=O)[C@H](Cc2ccccc2)NC(=O)[C@H](CC(=O)O)NC1=O` [drawing 23] (H-CPEFLDFPC-NH2; disulfide 1-9): the “Relative Potency” value in data set [2] (setting [6]) is recorded as 31.3. On the same count and under the same terms, with `CC(C)C[C@@H]1NC(=O)[C@H](Cc2ccccc2)NC(=O)[C@H](CCC(=O)O)NC(=O)[C@@H](N)CSSC[C@@H](C(N)=O)NC(=O)[C@@H]2CCCN2C(=O)[C@H](Cc2ccccc2)NC(=O)[C@H](CC(=O)O)NC1=O` [drawing 26] (H-CEFLDFPC-NH2; disulfide 1-8) the figure was 18.8; with `CC(C)C[C@@H]1NC(=O)[C@H](Cc2ccccc2)NC(=O)[C@H](CCC(=O)O)NC(=O)[C@@H]2CCCN2C(=O)CNC(=O)[C@@H](N)CSSC[C@@H](C(N)=O)NC(=O)[C@H](Cc2ccccc2)NC(=O)[C@H](CC(=O)O)NC1=O` [drawing 30] (H-CGPEFLDFC-NH2; disulfide 1-9), 9.39; with `CC(C)C[C@@H]1NC(=O)[C@H](Cc2ccccc2)NC(=O)[C@H](CCC(=O)O)NC(=O)[C@@H](N)CSSC[C@@H](C(N)=O)NC(=O)[C@H](CO)NC(=O)[C@@H]2CCCN2C(=O)[C@H](Cc2ccccc2)NC(=O)[C@H](CC(=O)O)NC1=O` [drawing 34] (H-CEFLDFPSC-NH2; disulfide 1-9), 6.26. `CC(C)C[C@@H]1NC(=O)[C@H](Cc2ccccc2)NC(=O)[C@H](CCC(=O)O)NC(=O)[C@@H]2CCCN2C(=O)[C@@H](N)CSSC[C@@H](C(N)=O)NC(=O)[C@H](CO)NC(=O)[C@@H]2CCCN2C(=O)[C@H](Cc2ccccc2)NC(=O)[C@H](CC(=O)O)NC1=O` [drawing 35] (H-CPEFLDFPSC-NH2; disulfide 1-10): the “Relative Potency” value in data set [2] (setting [6]) was 6.26.

As to `NC(=O)[C@@H]1CSSC[C@H](NC(=O)[C@@H](N)Cc2ccccc2)C(=O)N[C@@H](CC(=O)O)C(=O)N[C@@H](Cc2ccccc2)C(=O)N1` [drawing 39] (H-FCDFC-NH2; disulfide 2-5), the “Relative Potency” value in data set [2] (setting [6]) turned out to be 2.52. Regarding ILDFP-NH2 [SEQ ID NO:27, ILDFP-NH2], in data set [2] (setting [5]), the “Relative Potency” value is recorded as 2. Consider “ILDVPILDVP-NH2 [SEQ ID NO:26, ILDVPILDVP-NH2]”, for which the “Relative Potency” value in data set [2] (setting [5]) was 2. Leu-Asp-Val [LDV]: the “affinity of VLA-4 compared with native CS-1 25-mer” value in data set [4] was “at least two orders of magnitude lower affinity”. With SFDFS-NH2 [SEQ ID NO:31, SFDFS-NH2], the “Relative Potency” value in data set [2] (setting [5]) was under 1.

The values above are taken from US5811391A, “Cyclic CS-1 peptidomimetics, compositions and methods of using same” (Cytel Corporation, priority 1995, dated 1998).
